# Legend:
# [1] = test system: Enterobacter aerogenes SRI Collection; experiment: Spectrum of antimicrobial activity; type: cell-based
# [2] = test system: Pseudomonas aeruginosa ATCC 27853; experiment: Spectrum of antimicrobial activity; type: cell-based
# [3] = test system: Salmonella choleraesuis ATCC 13311; experiment: Spectrum of antimicrobial activity; type: cell-based
# [4] = test system: Klebsiella pneumoniae ATCC 43816; experiment: Spectrum of antimicrobial activity; type: cell-based
# [5] = test system: Salmonella typhimurium -Hisg46 SRI Collection; experiment: Spectrum of antimicrobial activity; type: cell-based
# [6] = test system: Enterobacter aerogenes ATCC 29751; experiment: Spectrum of antimicrobial activity; type: cell-based
# [7] = test system: Moraxella catarrhalis ATCC 25238; experiment: Spectrum of antimicrobial activity; type: cell-based
# [8] = test system: Staphylococcus aureus HA-MRSA NRS 382; experiment: Spectrum of antimicrobial activity; type: cell-based
# [9] = test system: Enterococcus faecium ATCC 19434; experiment: Spectrum of antimicrobial activity; type: cell-based
# [10] = Solubility, shake-flask method; type: physicochemical; conditions: 0.9% saline solution at pH 7.4, triplicate
# Protocol: The solubility of these two compounds was measured in triplicate using the shake-flask method in a 0.9% saline solution at pH 7.4. Both 8a and 20q had acceptable solubilities of 1.35 mg/mL and 0.28 mg/mL, respectively.
# Compounds were ground into a fine powders using a mortar and pestle and added to a 25 mL glass Erlenmeyer flask with 5 mL of a 0.9% saline solution at pH 7.4. Approximately 20 mg of compound was added to each flask to ensure saturation. The flasks were then vigorously stirred using a magnetic stir bar at 25° C. for 48 hours. The samples were then filtered through a Whatman PVDF membrane (0.45 μm pore size) syringe filter. The concentration of compound in the supernatant was then measured using HPLC quantitation at the maximum absorption wavelength for each compound.
# [11] = test system: Escherichia coli BAA 201; experiment: Spectrum of antimicrobial activity; type: cell-based
# [12] = test system: Enterococcus fecalis ATCC 29212; experiment: Spectrum of antimicrobial activity; type: cell-based
# [13] = test system: Acinetobacter baumannii ATCC 17978; experiment: Spectrum of antimicrobial activity; type: cell-based
# [14] = test system: Escherichia coli ATCC 25922; experiment: Spectrum of antimicrobial activity; type: cell-based
# [15] = test system: Mycobacterium smegmatis ATCC 10143; experiment: Spectrum of antimicrobial activity; type: cell-based
# [16] = test system: Staphylococcus aureus ATCC 29213; experiment: Spectrum of antimicrobial activity; type: cell-based
# [17] = test system: Enterococcus fecalis ATCC 51575; experiment: Spectrum of antimicrobial activity; type: cell-based
# [18] = test system: NRP Mtb H37Rv cells; experiment: Low-oxygen recovery assay (LORA) MIC; type: cell-based, Mycobacterium tuberculosis; conditions: Mycobacterium tuberculosis, H37RV, read-out: LORA MIC - ITR
# [19] = test system: Mycobacterium abscessus ATCC 19977; experiment: Spectrum of antimicrobial activity; type: cell-based
# [20] = test system: Escherichia coli pKM101 SRI Collection; experiment: Spectrum of antimicrobial activity; type: cell-based
# [21] = test system: Mtb H37Rv; experiment: TB MIC - SRI, resazurin-based microplate assay; type: cell-based, Mycobacterium tuberculosis; conditions: source CSU; SI Table 1
# [22] = test system: Acinetobacter baumannii BAA 1605; experiment: Spectrum of antimicrobial activity; type: cell-based
# [23] = test system: Mtb H37Rv; experiment: TB MIC - ITR (UIC), Institute for Tuberculosis Research; type: cell-based, Mycobacterium tuberculosis; conditions: Mycobacterium tuberculosis, H37RV; Tables 1-4; read-out: TB MIC - ITR
# [24] = test system: Klebsiella pneumoniae ATCC 700721; experiment: Spectrum of antimicrobial activity; type: cell-based
# [25] = Plasma pharmacokinetics in female mice after oral administration; type: in vivo, mouse; conditions: 100 mg/kg
# Protocol: In order to validate BTOs as a new lead series for the treatment of TB, we also evaluated their systemic exposure in the mouse after oral administration. A single dose (100 mg/kg) of 8a and 20q were administered to mice in order to profile the pharmacokinetics for the BTOs (Table 7). […] The elimination half-life was for each compound was shorter than our ideal target values, but the Tmax values indicate that they are rapidly absorbed after oral administration (FIGURE).
# All pharmacokinetic studies were performed in accordance with SRI International's animal care policies in an AAALAC and OLAW accredited facility. The procedure for the pharmacokinetics studies followed a previously described method.^55 Briefly, the plasma pharmacokinetics of selected BTO derivatives were determined in female CD1 mice after administration of a single dose (100 mg/kg) by oral gavage. Blood was collected from three mice per time point at 5, 15, 30, and 60 min and 2, 4, 6, 8, and 24 h after dose administration. Means and standard deviations were calculated for the plasma drug concentrations at each time point. Pharmacokinetic analysis was performed using non compartmental methods (WinNonlin® Professional, Version 5.2, Pharsight Corp, Mountain View, Calif.). The following parameters were calculated: time to maximum plasma concentration (Tmax), maximum plasma concentration (Cmax), maximum plasma concentration extrapoloated to time 0 (C0), area under the plasma concentration-time curve to the last time point (AUClast) and to infinity (AUCinf).
compound,measurement,setting,value
"CCNc1n[n+]([O-])c2ccccc2[n+]1[O-] [Compound 8a, 3-(ethylamino)benzo[e][1,2,4]triazine 1,4-dioxide]","Antimicrobial activity, Enterobacter aerogenes",[1],>32 µg/mL
same,"Antimicrobial activity, Pseudomonas aeruginosa",[2],>32 µg/mL
same,"Antimicrobial activity, Salmonella choleraesuis",[3],32 µg/mL
same,"Antimicrobial activity, Klebsiella pneumoniae",[4],>32 µg/mL
same,"Antimicrobial activity, Salmonella typhimurium -Hisg46",[5],>32 µg/mL
same,"Antimicrobial activity, Enterobacter aerogenes",[6],>32 µg/mL
same,"Antimicrobial activity, Moraxella catarrhalis",[7],32 µg/mL
same,"Antimicrobial activity, Staphylococcus aureus HA-MRSA",[8],16 to 32 µg/mL
same,"Antimicrobial activity, Enterococcus faecium",[9],>32 µg/mL
same,solubility,[10],1.35 mg/mL
same,"Antimicrobial activity, Escherichia coli",[11],16 µg/mL
same,"Antimicrobial activity, Enterococcus fecalis",[12],16 µg/mL
same,"Antimicrobial activity, Acinetobacter baumannii",[13],32 µg/mL
same,"Antimicrobial activity, Escherichia coli",[14],16 µg/mL
same,"Antimicrobial activity, Mycobacterium smegmatis",[15],5.0 µg/mL
same,"Antimicrobial activity, Staphylococcus aureus",[16],>32 µg/mL
same,"Antimicrobial activity, Enterococcus fecalis",[17],32 µg/mL
same,MIC,[18],0.37 µg/mL
same,susceptibility of M. abscessus,[19],resistant
same,"Antimicrobial activity, Mycobacterium abscessus",[19]; ATCC 19977,>32 µg/mL
same,"Antimicrobial activity, Escherichia coli pKM101",[20],32 μg/mL
same,"Antimicrobial activity, Mtb H37Rv",[21],1.2 µg/mL
same,"Antimicrobial activity, Acinetobacter baumannii",[22],>32 µg/mL
same,MIC,[23],0.57 µg/mL
same,"Antimicrobial activity, Klebsiella pneumoniae",[24],>32 µg/mL
same,AUCinf,"[25]; female mice, oral",6937 ng·h/mL
same,AUClast,"[25]; female mice, oral",6578 ng·h/mL
same,Cmax,"[25]; female mice, oral",9540 ng/mL
same,Tmax,"[25]; female mice, oral",4.8 min
same,t1/2,"[25]; female mice, oral",1.5 h
same,plasma drug concentration at the 24 hr time point,"[25]; mouse, in vivo, po",lower than the limit of quantitation

# Source: patent US9663478B2, “Benzotriazine oxides as drugs targeting Mycobacterium tuberculosis” (priority 2011, dated 2017)
